Measurements as given in PubChem BioAssay (NCI).
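Results reflect a 48-hour exposure of cells in 96-well plates to compound at five concentrations. TGI: concentration producing complete growth inhibition.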

Experiments:
Assay in all cases: NCI tumour cell line growth inhibition, 48 h
K-562 leukemia = system: K-562 leukemia
NCI-H522 lung = system: NCI-H522 lung
NCI-H226 lung = system: NCI-H226 lung
HOP-92 NSCLC = system: HOP-92 NSCLC
IGROV1 ovarian = system: IGROV1 ovarian
OVCAR-4 ovarian = system: OVCAR-4 ovarian
A498 renal = system: A498 renal
NCI/ADR-RES ovarian = system: NCI/ADR-RES ovarian
HL-60(TB) leukemia = system: HL-60(TB) leukemia
SK-MEL-5 melanoma = system: SK-MEL-5 melanoma
HT29 colon = system: HT29 colon
NCI-H23 lung = system: NCI-H23 lung
SN12C renal = system: SN12C renal
ACHN renal = system: ACHN renal
SNB-75 CNS = system: SNB-75 CNS
MALME-3M melanoma = system: MALME-3M melanoma
MCF7 breast = system: MCF7 breast

| SMILES | TGI (K-562 leukemia) | TGI (NCI-H522 lung) | TGI (NCI-H226 lung) | TGI (HOP-92 NSCLC) | TGI (IGROV1 ovarian) | TGI (OVCAR-4 ovarian) | TGI (A498 renal) | TGI (NCI/ADR-RES ovarian) | TGI (HL-60(TB) leukemia) | TGI (SK-MEL-5 melanoma) | TGI (HT29 colon) | TGI (NCI-H23 lung) | TGI (SN12C renal) | TGI (ACHN renal) | TGI (SNB-75 CNS) | TGI (MALME-3M melanoma) | TGI (MCF7 breast) |
| --- | --- | --- | --- | --- | --- | --- | --- | --- | --- | --- | --- | --- | --- | --- | --- | --- | --- |
| COc1cc(C(c2cccc3ccccc23)N2C(=O)CCC2C(=O)O)cc(OC)c1OC (stereo not drawn) | > 100 µM | > 100 µM | > 100 µM | > 100 µM | > 100 µM | > 100 µM | > 100 µM | > 100 µM | > 100 µM | > 100 µM | > 100 µM | > 100 µM | > 100 µM | > 100 µM | > 100 µM | > 100 µM | > 100 µM |
| COC1CC(C)([N+](=O)[O-])C(O)C(C)O1 (stereo not drawn) | > 100 µM | > 100 µM | > 100 µM | > 100 µM | > 100 µM | > 100 µM | > 100 µM | > 100 µM | > 100 µM | > 100 µM | > 100 µM | > 100 µM | > 100 µM | > 100 µM | > 100 µM | > 100 µM | > 100 µM |
| O=[N+]([O-])c1ccc(C2=NOC(c3ccc(Cl)cc3)N2C23CC4CC(CC(C4)C2)C3)cc1 (stereo not drawn) | > 100 µM | > 100 µM | > 100 µM | > 100 µM | > 100 µM | > 100 µM | > 100 µM | > 100 µM | > 100 µM | > 100 µM | > 100 µM | > 100 µM | > 100 µM | > 100 µM | > 100 µM | > 100 µM | > 100 µM |
| NC(=O)NNCc1c(-c2ccccc2)no[n+]1[O-] | > 100 µM | > 100 µM | > 100 µM | > 100 µM | > 100 µM | > 100 µM | > 100 µM | > 100 µM | > 100 µM | > 100 µM | > 100 µM | > 100 µM | > 100 µM | > 100 µM | > 100 µM | > 100 µM | > 100 µM |
| COC(=O)c1nn2ccc3ccccc3c2c1C(=O)OC | > 100 µM | > 100 µM | > 100 µM | > 100 µM | > 100 µM | > 100 µM | > 100 µM | > 100 µM | > 100 µM | > 100 µM | > 100 µM | > 100 µM | > 100 µM | > 100 µM | > 100 µM | > 100 µM | > 100 µM |
| CN=C(N)N=Nc1c(O)[nH]c2ccccc12 | > 100 µM | > 100 µM | > 100 µM | > 100 µM | > 100 µM | > 100 µM | > 100 µM | > 100 µM | > 100 µM | > 100 µM | > 100 µM | > 100 µM | > 100 µM | > 100 µM | > 100 µM | > 100 µM | > 100 µM |
| CCCCCCSCC/C(C)=N\OC | > 100 µM | > 100 µM | > 100 µM | > 100 µM | > 100 µM | > 100 µM | > 100 µM | > 100 µM | > 100 µM | > 100 µM | > 100 µM | > 100 µM | > 100 µM | > 100 µM | > 100 µM | > 100 µM | > 100 µM |
| CCOC(=O)c1nc2ccccc2nc1Nc1ccc(OC)cc1 | > 100 µM | > 100 µM | > 100 µM | 54.4 µM | > 100 µM | 55.7 µM | 84.5 µM | > 100 µM | > 100 µM | > 100 µM | > 100 µM | > 100 µM | 61.5 µM | > 100 µM | 93.2 µM | > 100 µM | > 100 µM |
| CC1(C)S[C@H](CN)N[C@H]1C(=O)OC(c1ccccc1)c1ccccc1 | 55.8 µM | 83.4 µM | > 100 µM | 91.6 µM | > 100 µM | > 100 µM | 70.4 µM | > 100 µM | 35.7 µM | 31.4 µM | > 100 µM | > 100 µM | > 100 µM | > 100 µM | > 100 µM | 83.8 µM | > 100 µM |
